Test system: CF-1 male albino mice (MES-induced seizure)
Test: Maximal Electroshock Test (MES), anticonvulsant activity
Assay type: in vivo
Details: for MES @ 300 mpk: (number of mice with full body tonic extension prevented)/(total number of mice tested): 300 mpk oral
Description: Anticonvulsant activity was determined using the MES test, run according to the procedure described in detail below. Swinyard E A, Woodhead J H, White H S, Franklin M R. Experimental selection, quantification, and evaluation of anticonvulsants. In Levy R H, et al., eds. Antiepileptic Drugs. 3rd ed. New York: Raven Press, 1989:85-102
CF-1 male albino mice (25-35 g) were fasted for 16 hours before testing. Mice were randomly selected into control and test groups, with the animals dosed with vehicle or test compound, at varying concentrations, respectively. On the study date, at 30 minutes prior to shock, the mice were orally dosed with vehicle (0.5% methylcellulose) or test compound (100-300 mg/kg). Seizures were induced by trans-corneal electric shock using a 60-Hz alternating current, 50 mA, delivered for 0.2 sec. The mice in the test groups were subjected to electrical stimulus at time intervals between 15 minutes and 4 hours following administration of test compound. […] The test was complete when the entire course of the convulsion has been observed (typically, less than 1 minute after electrical stimulation), and the mice were then immediately euthanized by carbon dioxide inhalation.
Abolition of the full body tonic extensor component of the seizure was taken as the endpoint of the test. […] The ED50 value of the test compound (calculated when appropriate) was the calculated dose required to block the hind limb tonic-extensor component of the MES-induced seizure in 50% of the rodents tested. A probit analysis was used to calculate the ED50 and 95% fiducial limits (FL).
Representative compounds of the present invention were tested according to the procedure described above, with results as listed in Table 3 below. Results are listed as (number of mice with full body tonic extension prevented)/(total number of mice tested) (@ a given time).

[1] = 100 mpk oral, 0.5 h after dosing

SMILES | MES @ 300 mpk: (number of mice with full body tonic extension prevented)/(total number of mice tested) (0.5 hr after dosing) | MES @ 300 mpk: (number of mice with full body tonic extension prevented)/(total number of mice tested) (2 hr after dosing) | MES @ 300 mpk: (number of mice with full body tonic extension prevented)/(total number of mice tested) (4 hr after dosing) | MES @ 100 mpk: (number of mice with full body tonic extension prevented)/(total number of mice tested) [1] | MES @ 100 mpk: (number of mice with full body tonic extension prevented)/(total number of mice tested) (100 mpk oral, 2 h after dosing) | MES @ 100 mpk: (number of mice with full body tonic extension prevented)/(total number of mice tested) (100 mpk oral, 4 h after dosing) | MES @ 100 mpk (result in words) (100 mpk oral, time not stated)
NS(=O)(=O)NCc1csc2c(F)cccc12 [Compound 18, N-[(7-fluorobenzo[b]thien-3-yl)methyl]-sulfamide] | 0/3 (0.5 hr) | 2/3 (2 hr) | 0/3 (4 hr) |  |  |  | 
NS(=O)(=O)NCc1csc2cccc(Br)c12 [Compound 17, N-[(4-bromobenzo[b]thien-3-yl)methyl]-sulfamide] | 0/3 (0.5 hr) | 0/3 (2 hr) | 1/3 (4 hr) |  |  |  | 
NS(=O)(=O)NCc1csc2ccc(Br)cc12 [Compound 15, N-[(5-bromobenzo[b]thien-3-yl)methyl]-sulfamide] | 0/3 (0.5 hr) | 0/3 (2 hr) | 1/3 (4 hr) |  |  |  | 
Cc1oc2ccccc2c1CNS(N)(=O)=O [Compound 13, N-[(2-methyl-3-benzofuranyl)methyl]-sulfamide] |  |  |  | 4/5 (0.5 h) | 0/5 (2 h) | 0/5 (4 h) | 
Cn1cc(CNS(N)(=O)=O)c2ccccc21 [Compound 7, N-[(1-methyl-1H-indol-3-yl)methyl]-sulfamide] | 5/5 (0.5 hr) | 0/5 (2 hr) | 0/5 (4 hr) |  |  |  | inactive
NS(=O)(=O)NCc1csc2ccccc12 [Compound 1, N-(benzo[b]thien-3-ylmethyl)-sulfamide] |  |  |  | 1/5 (0.5 h) | 3/5 (2 h) | 2/5 (4 h) | 

Reference: patent US8283478B2, “Process for preparation of sulfamide derivatives” (Janssen Pharmaceutica NV, priority 2005, dated 2012)
